Test: xn = mol fraction of the nth substance listed
Settings: 100 kPa

CCCC[N+]1(C)CCCC1.O=S(=O)([N-]S(=O)(=O)C(F)(F)F)C(F)(F)F + O=C1CCCO1
Settings | electrical conductivity [S/m] | viscosity [mPa·s]
298.15 K, x2 = 0 | 0.277 | 76.7
298.15 K, x2 = 0.1075 | 0.329 | 58.5
298.15 K, x2 = 0.2019 | 0.394 | 44.4
298.15 K, x2 = 0.3004 | 0.468 | 34.2
298.15 K, x2 = 0.3996 | 0.554 | 24.5
298.15 K, x2 = 0.5044 | 0.726 | 16.91
298.15 K, x2 = 0.5999 | 0.953 | 12.03
298.15 K, x2 = 0.7009 | 1.24 | 8.13
298.15 K, x2 = 0.7997 | 1.47 | 5.31
298.15 K, x2 = 0.8509 | 1.55 | –
298.15 K, x2 = 0.9 | 1.46 | 3.32
298.15 K, x2 = 0.9498 | 1.12 | –
303.15 K, x2 = 0 | 0.338 | 61.7
303.15 K, x2 = 0.1075 | 0.381 | 47.8
303.15 K, x2 = 0.3004 | 0.545 | 28.4
303.15 K, x2 = 0.3996 | 0.654 | 20.78
303.15 K, x2 = 0.5044 | 0.818 | 14.5
303.15 K, x2 = 0.5999 | 1.08 | 10.43
303.15 K, x2 = 0.7009 | 1.37 | 7.18
303.15 K, x2 = 0.7997 | 1.63 | 4.78
303.15 K, x2 = 0.8509 | 1.72 | –
303.15 K, x2 = 0.9 | 1.59 | 3.04
303.15 K, x2 = 0.9498 | 1.22 | –
308.15 K, x2 = 0 | 0.412 | 50.5
308.15 K, x2 = 0.2019 | 0.545 | 30.6
308.15 K, x2 = 0.3996 | 0.758 | 17.56
308.15 K, x2 = 0.5044 | 0.92 | 12.58
308.15 K, x2 = 0.5999 | 1.21 | 9.19
308.15 K, x2 = 0.7009 | 1.52 | 6.39
308.15 K, x2 = 0.7997 | 1.8 | 4.35
308.15 K, x2 = 0.8509 | 1.89 | –
308.15 K, x2 = 0.9 | 1.72 | 2.79
313.15 K, x2 = 0 | 0.491 | 41.7
313.15 K, x2 = 0.1075 | 0.538 | 32.9
313.15 K, x2 = 0.2019 | 0.621 | 26.1
313.15 K, x2 = 0.3004 | 0.736 | 20.38
313.15 K, x2 = 0.3996 | 0.865 | 15.37
313.15 K, x2 = 0.5044 | 1.02 | 11.12
313.15 K, x2 = 0.5999 | 1.34 | 8.16
313.15 K, x2 = 0.7997 | 1.97 | 3.96
313.15 K, x2 = 0.8509 | 2.06 | –
313.15 K, x2 = 0.9 | 1.85 | 2.57
318.15 K, x2 = 0 | 0.579 | 34.7
318.15 K, x2 = 0.1075 | 0.616 | 27.6
318.15 K, x2 = 0.3004 | 0.812 | 17.43
318.15 K, x2 = 0.3996 | 0.971 | 13.26
318.15 K, x2 = 0.5044 | 1.15 | 9.7
318.15 K, x2 = 0.5999 | 1.45 | 7.2
318.15 K, x2 = 0.7009 | 1.83 | 5.14
318.15 K, x2 = 0.7997 | 2.14 | 3.6
318.15 K, x2 = 0.9 | 1.99 | 2.38
323.15 K, x2 = 0 | 0.672 | 29.5
323.15 K, x2 = 0.1075 | 0.713 | 23.1
323.15 K, x2 = 0.2019 | 0.785 | 19.22
323.15 K, x2 = 0.3996 | 1.08 | 11.55
323.15 K, x2 = 0.5044 | 1.28 | 8.62
323.15 K, x2 = 0.7997 | 2.31 | 3.31
323.15 K, x2 = 0.8509 | 2.4 | –
323.15 K, x2 = 0.9 | 2.12 | 2.21

CC[n+]1ccn(C)c1.O=S(=O)([N-]S(=O)(=O)C(F)(F)F)C(F)(F)F + O=C1CCCO1
electrical conductivity [S/m]
Settings | 293.15 K | 298.15 K | 303.15 K | 308.15 K | 313.15 K | 318.15 K | 323.15 K
x2 = 0 | – | 0.915 | – | – | – | 1.51 | 1.75
x2 = 0.1009 | 0.905 | 1.04 | 1.18 | 1.32 | 1.49 | 1.67 | 1.89
x2 = 0.2073 | 1.05 | – | – | 1.48 | 1.65 | – | –
x2 = 0.3005 | – | 1.32 | – | 1.61 | – | 1.96 | 2.19
x2 = 0.3897 | 1.29 | 1.45 | 1.61 | 1.76 | 1.92 | 2.11 | 2.34
x2 = 0.5101 | – | 1.63 | – | 1.95 | 2.12 | – | 2.53
x2 = 0.6 | 1.6 | 1.76 | 1.93 | 2.09 | 2.25 | 2.45 | –
x2 = 0.7 | 1.73 | 1.9 | – | 2.23 | 2.4 | 2.59 | 2.81
x2 = 0.7994 | 1.77 | 1.94 | – | – | 2.42 | – | 2.79
x2 = 0.8498 | 1.75 | 1.9 | – | 2.19 | 2.35 | 2.51 | 2.71
x2 = 0.9005 | – | 1.72 | 1.85 | 1.98 | – | 2.25 | 2.4
x2 = 0.95 | – | 1.22 | – | 1.4 | 1.5 | – | 1.7
